US8957074B2 (Novartis AG, priority 2010, dated 2015)
Like-named read-outs stand apart in the source and are kept apart here.

Tests used:
[1] = target: CDK4/cyclin D1 (Homo sapiens (Human), UniProt P11802); assay: CDK4/cyclin D1 enzymatic activity assay (TR-FRET, phosphorylation of pRb at Ser780); format: biochemical
Method in brief: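 Phosphorylation at pRb Ser780, detected by TR-FRET, gave IC50s and kinetics. Enzyme: baculovirus/Sf21-expressed human CDK4/cyclin D1. ATP at 3 μM initiated the reaction; EDTA (pH 8.0) stopped it after 60 min at 22° C.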

[2] = test system: phosphorylation of pRb at the Ser780 site in JeKo-1 mantle cell lymphoma cells; assay: CDK4 cellular assay: ELISA of pRb phosphorylation at Ser780 in JeKo-1 cells; format: cell-based
[3] = target: CDK1/cyclin B (Homo sapiens (Human), UniProt P06493); assay: CDK1/cyclin B enzymatic activity assay (IMAP-FP); format: biochemical; conditions: 100 nM Tamra Histone-H1 peptide, 20 μM ATP, 120 min at room temperature, read-out: Biochemical CDK1 enzyme IC50
Description: CDK1/Cyclin B Enzymatic Activity Assay
A 384-well microtiter IMAP-FP™ (Molecular Devices Trade Mark Technology) endpoint assay was used for CDK1/cyclin B kinase activity measurements. The same assay was used for IC50 determination of small molecule inhibitors.

[4] = 0.3 nM CDK4/cyclin D1, 150 nM biotin-pRb (773-924), 3 μM ATP, 60 min at 22° C., read-out: Biochemical CDK4 enzyme IC50
[5] = Homo sapiens, JeKo-1 cells, p-pRb % inhibition adjusted with total pRb levels, read-out: Normalized cellular ppRb inhibition IC50
[6] = Homo sapiens, JeKo-1 cells, p-pRb Ser780 ELISA, non-normalized, read-out: Cellular ppRb inhibition IC50
[7] = Homo sapiens, JeKo-1, JeKo-1 cells, p-pRb % inhibition adjusted with total pRb levels, read-out: Normalized cellular ppRb inhibition IC50
[8] = Homo sapiens, JeKo-1, JeKo-1 cells, p-pRb Ser780 ELISA, non-normalized, read-out: Cellular ppRb inhibition IC50

Sequence of CDK1/cyclin B (P06493 whole entry, species assumed): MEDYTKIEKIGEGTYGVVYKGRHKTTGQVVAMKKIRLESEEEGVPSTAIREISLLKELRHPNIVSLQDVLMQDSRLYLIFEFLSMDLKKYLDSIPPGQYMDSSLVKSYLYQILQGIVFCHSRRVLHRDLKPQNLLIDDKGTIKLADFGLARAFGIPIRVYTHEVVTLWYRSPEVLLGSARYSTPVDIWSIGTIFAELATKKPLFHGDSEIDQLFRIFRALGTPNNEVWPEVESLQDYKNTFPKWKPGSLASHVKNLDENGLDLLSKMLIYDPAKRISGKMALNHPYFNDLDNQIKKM
Sequence of CDK1/cyclin B (P14635 whole entry partner, species assumed): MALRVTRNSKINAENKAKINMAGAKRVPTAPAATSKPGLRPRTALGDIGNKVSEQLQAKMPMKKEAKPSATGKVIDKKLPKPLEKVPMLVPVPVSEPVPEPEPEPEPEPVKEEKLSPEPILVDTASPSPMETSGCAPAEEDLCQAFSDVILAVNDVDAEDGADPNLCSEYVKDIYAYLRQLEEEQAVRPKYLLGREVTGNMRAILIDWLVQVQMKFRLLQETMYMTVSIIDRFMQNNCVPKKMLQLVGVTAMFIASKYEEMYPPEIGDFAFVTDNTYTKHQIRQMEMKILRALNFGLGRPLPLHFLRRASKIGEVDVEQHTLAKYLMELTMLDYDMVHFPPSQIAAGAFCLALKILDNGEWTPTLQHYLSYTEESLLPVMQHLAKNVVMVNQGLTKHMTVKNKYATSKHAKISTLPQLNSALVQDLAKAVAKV
Sequence of CDK4/cyclin D1 (P11802 whole entry): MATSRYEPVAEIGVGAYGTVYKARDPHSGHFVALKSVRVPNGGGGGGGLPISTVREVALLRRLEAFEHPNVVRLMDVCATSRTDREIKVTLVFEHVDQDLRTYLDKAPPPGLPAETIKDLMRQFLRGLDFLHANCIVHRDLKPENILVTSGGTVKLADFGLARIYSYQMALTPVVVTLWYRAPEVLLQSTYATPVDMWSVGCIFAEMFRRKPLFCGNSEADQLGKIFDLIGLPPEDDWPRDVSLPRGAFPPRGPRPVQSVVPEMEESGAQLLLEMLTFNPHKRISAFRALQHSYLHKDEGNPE
Sequence of CDK4/cyclin D1 (P24385 whole entry partner): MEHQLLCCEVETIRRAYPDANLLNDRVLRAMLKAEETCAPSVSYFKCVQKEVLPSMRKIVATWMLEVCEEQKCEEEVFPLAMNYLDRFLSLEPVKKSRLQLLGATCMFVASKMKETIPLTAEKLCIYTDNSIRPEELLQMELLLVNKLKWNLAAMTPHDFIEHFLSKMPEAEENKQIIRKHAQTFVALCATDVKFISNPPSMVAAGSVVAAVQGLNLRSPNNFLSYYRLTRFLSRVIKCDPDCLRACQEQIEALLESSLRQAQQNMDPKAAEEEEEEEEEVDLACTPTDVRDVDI

SMILES | IC50 [1, 4] [nM] | IC50 [2, 5] [nM] | IC50 [2, 6] [nM] | IC50 ([3]; […] CDK1/cyclin B) [nM] | IC50 [2, 7] [nM] | IC50 [2, 8] [nM] | further results
CC(=O)N1C2CCC1CN(C(=O)c1ccc(Nc3ncc4cc(C(=O)N(C)C)n(C5CCCC5)c4n3)nc1)C2 [Example 27, 2-(5-(8-acetyl-3,8-diazabicyclo[3.2.1]octane-3-carbonyl)pyridin-2-ylamino)-7-cyclopentyl-N,N-dimethyl-7H-pyrrolo[2,3-d]pyrimidine-6-carboxamide] | 46 | 201 | 194 | > 15000 | – | – | –
CN(C)C(=O)c1cc2cnc(Nc3ccc(C(=O)N4CC5CCC(C4)N5CCO)cn3)nc2n1C1CCCC1 [Example 28, 7-cyclopentyl-2-(5-(8-(2-hydroxyethyl)-3,8-diazabicyclo[3.2.1]octane-3-carbonyl)pyridin-2-ylamino)-N,N-dimethyl-7H-pyrrolo[2,3-d]pyrimidine-6-carboxamide] | 22 | – | – | > 15000 | 69 | 63 | –
CC(C)N1C2CCC1CN(C(=O)c1ccc(Nc3ncc4cc(C(=O)N(C)C)n(C5CCCC5)c4n3)nc1)C2 [Example 29, 7-cyclopentyl-2-(5-(8-isopropyl-3,8-diazabicyclo[3.2.1]octane-3-carbonyl)pyridin-2-ylamino)-N,N-dimethyl-7H-pyrrolo[2,3-d]pyrimidine-6-carboxamide] | 14 to 17 | 20 to 48 | 24 to 34 | > 15000 | – | – | –
CN(C)C(=O)c1cc2cnc(Nc3ccc(C(=O)N4C[C@@H]5C[C@H]4C[C@@H]5O)cn3)nc2n1C1CCCC1 [Example 30, 7-cyclopentyl-2-(5-((1S,4S,5S)-5-hydroxy-2-azabicyclo[2.2.1]heptane-2-carbonyl)pyridin-2-ylamino)-N,N-dimethyl-7H-pyrrolo[2,3-d]pyrimidine-6-carboxamide] | 88 to 114 | 344 to 582 | 422 to 542 | > 15000 | – | – | –
CN(C)C(=O)c1cc2cnc(Nc3ccc(C(=O)N4C[C@@H]5C[C@H]4C[C@H]5O)cn3)nc2n1C1CCCC1 [Example 31, 7-cyclopentyl-2-(5-((1S,4S,5R)-5-hydroxy-2-azabicyclo[2.2.1]heptane-2-carbonyl)pyridin-2-ylamino)-N,N-dimethyl-7H-pyrrolo[2,3-d]pyrimidine-6-carboxamide] | 69 to 81 | 497 to 591 | 252 to 352 | > 15000 | – | – | –
CN(C)C(=O)c1cc2cnc(Nc3ccc(C(=O)N4CC5CNCC5C4)cn3)nc2n1C1CCCC1 (stereo not shown) [Example 32, 7-cyclopentyl-N,N-dimethyl-2-(5-(octahydropyrrolo[3,4-c]pyrrole-2-carbonyl)pyridin-2-ylamino)-7H-pyrrolo[2,3-d]pyrimidine-6-carboxamide] | 15 to 21 | – | – | > 15000 | 212 | 131 | –
CN(C)C(=O)c1cc2cnc(Nc3ccc(C(=O)N4CC5CCC(C4)C5O)cn3)nc2n1C1CCCC1 [Example 33, 7-cyclopentyl-2-(5-((1R,5S,8r)-8-hydroxy-3-azabicyclo[3.2.1]octane-3-carbonyl)pyridin-2-ylamino)-N,N-dimethyl-7H-pyrrolo[2,3-d]pyrimidine-6-carboxamide] | 94 to 144 | 430 to 1300 | 377 to 919 | > 15000 | – | – | –
CN(C)C(=O)c1cc2cnc(Nc3ccc(C(=O)N4CC5CCC(C4)C5N(C)C)cn3)nc2n1C1CCCC1 (stereo not shown) [Example 34, 7-cyclopentyl-2-(5-(8-(dimethylamino)-3-azabicyclo[3.2.1]octane-3-carbonyl)pyridin-2-ylamino)-N,N-dimethyl-7H-pyrrolo[2,3-d]pyrimidine-6-carboxamide] | 22 | 140 | 75 | > 15000 | – | – | –
CC(CO)N1C2CCC1CN(C(=O)c1ccc(Nc3ncc4cc(C(=O)N(C)C)n(C5CCCC5)c4n3)nc1)C2 (stereo not shown) [Example 35, 7-cyclopentyl-2-(5-(8-(1-hydroxypropan-2-yl)-3,8-diazabicyclo[3.2.1]octane-3-carbonyl)pyridin-2-ylamino)-N,N-dimethyl-7H-pyrrolo[2,3-d]pyrimidine-6-carboxamide] | 26 | – | – | > 15000 | 197 | 69 | –
CN(C)C(=O)c1cc2cnc(Nc3ccc(C(=O)N4CC5CCC(C4)N5)cn3)nc2n1[C@H]1CC[C@H](C(C)(C)C)CC1 [Example 37, 7-(4-tert-Butyl-cyclohexyl)-2-[5-(3,8-diaza-bicyclo[3.2.1]octane-3-carbonyl)-pyridin-2-ylamino]-7H-pyrrolo[2,3-d]pyrimidine-6-carboxylic acid dimethylamide] | – | – | – | > 15000 | 288 to 438 | 121 to 301 | IC50 [1]: 5 to 6 nM
CN(C)C(=O)c1cc2cnc(Nc3ccc(C(=O)N4CC5CCC(C4)N5)nn3)nc2n1C1CCCC1 [Example 38, 7-Cyclopentyl-2-[6-(3,8-diaza-bicyclo[3.2.1]octane-3-carbonyl)-pyridazin-3-ylamino]-7H-pyrrolo[2,3-d]pyrimidine-6-carboxylic acid dimethylamide] | – | – | – | – | 139 to 783 | 75 to 259 | IC50 [1]: 45 to 84 nM; IC50 ([3]; 0.25 nM CDK1/cyclin B): > 15000 nM
CN1CC2(C)CN(C(=O)c3ccc(Nc4ncc5cc(C(=O)N(C)C)n(C6CCCC6)c5n4)nc3)CC(C)(C1)C2O (stereo not shown) [Example 39, 7-Cyclopentyl-2-(5-(9-hydroxy-1,5,7-trimethyl-3,7-diazabicyclo[3.3.1]nonane-3-carbonyl)pyridin-2-ylamino)-N,N-dimethyl-7H-pyrrolo[2,3-d]pyrimidine-6-carboxamide] | 77 | 136 | 79 | > 15000 | – | – | –
CN(C)C(=O)c1cc2cnc(Nc3ccc(C(=O)N4[C@@H]5CNC[C@H]4COC5)cn3)nc2n1C1CCCC1 [Example 40, 2-(5-((1R,5S)-3-oxa-7,9-diazabicyclo[3.3.1]nonane-9-carbonyl)pyridin-2-ylamino)-7-cyclopentyl-N,N-dimethyl-7H-pyrrolo[2,3-d]pyrimidine-6-carboxamide] | 36 to 52 | 51 to 222 | 40 to 99 | > 15000 | – | – | –
CN(C)C(=O)c1cc2cnc(Nc3ccc(C(=O)N4CC5(CNC5)C4)cn3)nc2n1C1CCCC1 [Example 41, 2-(5-(2,6-diazaspiro[3.3]heptane-2-carbonyl)pyridin-2-ylamino)-7-cyclopentyl-N,N-dimethyl-7H-pyrrolo[2,3-d]pyrimidine-6-carboxamide] | 15 to 17 | 132 to 415 | 112 to 228 | > 15000 | – | – | –
CN(C)C(=O)c1cc2cnc(Nc3ccc(C(=O)N4C[C@@H]5[C@@H](N)[C@@H]5C4)cn3)nc2n1C1CCCC1 [Example 42, 2-[5-((1S,5R,6S)-6-Amino-3-aza-bicyclo[3.1.0]hexane-3-carbonyl)-pyridin-2-ylamino]-7-cyclopentyl-7H-pyrrolo[2,3-d]pyrimidine-6-carboxylic acid dimethylamide] | 15 | 241 | 86 | > 15000 | – | – | –
CN(C)C(=O)c1cc2cnc(Nc3ccc(C(=O)N4[C@@H]5CC[C@H]4C[C@H](O)C5)cn3)nc2n1C1CCCC1 [Example 43, 7-Cyclopentyl-2-[5-((1S,3S,5R)-3-hydroxy-8-aza-bicyclo[3.2.1]octane-8-carbonyl)-pyridin-2-ylamino]-7H-pyrrolo[2,3-d]pyrimidine-6-carboxylic acid dimethylamide] | 176 to 198 | – | – | > 15000 | – | – | IC50 ([2]; JeKo-1 cells, p-pRb % inhibition adjusted with total pRb levels, read-out: Normalized cellular ppRb inhibition IC50): 469 to 1280 nM; IC50 ([2]; JeKo-1 cells, p-pRb Ser780 ELISA, non-normalized, read-out: Cellular ppRb inhibition IC50): 461 to 745 nM
CN(C)C(=O)c1cc2cnc(Nc3ccc(C(=O)N4[C@@H]5CC[C@H]4C[C@@H](O)C5)cn3)nc2n1C1CCCC1 [Example 44, 7-Cyclopentyl-2-[5-((1S,3R,5R)-3-hydroxy-8-aza-bicyclo[3.2.1]octane-8-carbonyl)-pyridin-2-ylamino]-7H-pyrrolo[2,3-d]pyrimidine-6-carboxylic acid dimethylamide] | 177 to 351 | – | – | > 15000 | – | – | IC50 ([2]; Homo sapiens, JeKo-1, read-out: Cellular ppRb inhibition IC50): 720 to 1490 nM; IC50 ([2]; Homo sapiens, JeKo-1, read-out: Normalized cellular ppRb inhibition IC50): 778 nM
CN(C)C(=O)c1cc2cnc(Nc3ccc(C(=O)N4CC5CCC(C4)N5C)cn3)nc2n1C1CCCC1 [Example 45, 7-cyclopentyl-2-[5-(8-methyl-3,8-diaza-bicyclo[3.2.1]octane-3-carbonyl)-pyridin-2-ylamino]-7H-pyrrolo[2,3-d]pyrimidine-6-carboxylic acid dimethylamide] | 14 to 24 | – | – | 12800 | 64 | 64 | –
CN(C)C(=O)c1cc2cnc(Nc3ccc(C(=O)N4CC5CN(Cc6ccccc6)CC(C4)O5)cn3)nc2n1C1CCCC1 [Example 46, 2-[5-(7-Benzyl-9-oxa-3,7-diaza-bicyclo[3.3.1]nonane-3-carbonyl)-pyridin-2-ylamino]-7-cyclopentyl-7H-pyrrolo[2,3-d]pyrimidine-6-carboxylic acid dimethylamide] | 100 | – | – | > 15000 | 730 | 724 | –
